Measured values from paper PMC8348310, “Antioxidants Isolated from Elaeagnus umbellata (Thunb.) Protect against Bacterial Infections and Diabetes in Streptozotocin-Induced Diabetic Rat Model” (Molecules, 2021).
≈ marks a conversion by molar mass, not a printed value. Where “and” joins values, the source holds several entries; their conditions need not be identical. Identical values can stand only once.

Assays:
[1] = DPPH free radical scavenging assay; type: biochemical; settings: 125 µg/mL
Bacillus cereus = test: Broth dilution MIC determination; type: cell-based; settings: 37 °C, 24 h, read-out: Minimum Inhibitory Concentrations
Description: (§1) Antibacterial potential of isolated compound was investigated against both Gram-positive and Gram-negative bacterial strains; Escherichia coli, Bacillus cereus, Salmonella typhi, Klebsiella pneumonia, Pseudomonas aeruginosa and Proteus mirabilis. Bacterial strains were provided by the Department of Pharmacy, University of Malakand, Khyber Pakhtunkhwa, Pakistan, and were kept at 4 °C in agar slants in freeze-dried condition until further use.
(§2) Both Gram-positive and Gram-negative bacterial strains Escherichia coli, Bacillus cereus, Salmonella typhi, Klebsiella pneumonia, Pseudomonas aeruginosa and Proteus mirabilis organism viable count per mL in the stock suspension was determined using surface viable counting technique. About 10^8–10^9 colony-forming units (CFU) per mL were used as inoculum in subsequent experiments. A fresh stock suspension was used each time.
(§3) Minimum inhibitory concentrations (MICs) of morin, phloroglucinol, and 1-hexyl benzene were determined using broth dilution method, following the Clinical and Laboratory Standards Institute (CLSI) guidelines. Stock solutions of morin, phloroglucinol, and 1-hexyl benzene were prepared in dimethylsulphoxide (DMSO). The serial dilutions from the stock solution were made ranging from 500 to 3.90 μg/mL using Mueller–Hinton broth. Sterile centrifuge tubes were arranged in sets of rows for each bacterial inoculum to cover the different concentration of isolated compounds in triplicate. The standard bacterial stock suspension 10^8–10^9 CFU/mL, in 100 μL were inoculated into each tube. A sterility control tube and a growth control tube were also incubated (for each strain). The tubes were incubated at 37 °C for 24 h. After incubation, 40 μL of a 0.4 mg/mL solution of para iodonitrotetrazolium (INT) chloride was added to each tube as an indicator of microbial growth. […] The evaluation for the inhibition of microbial growth was based on the color change of INT to pink, while no color change indicates the absence of growth. The MIC is the lowest concentration of the compounds at which there is no visible growth in the tubes. The concentration that inhibited bacterial growth completely (the first clear tube) was taken as the MIC value. Experiments were performed in triplicate and mean values are presented.
(§4) In order to, determine the sensitivity of the bacterial strains, positive control experiments were conducted, taking ampicillin at a starting concentration of 0.10 mg/mL in sterile water while the final concentrations for these experiments ranged from 25.00 to 0.19 μg/mL. A negative control experiment was conducted using only DMSO.

Proteus mirabilis = test: Broth dilution MIC determination; type: cell-based; settings: 37 °C, 24 h, read-out: Minimum Inhibitory Concentrations
Description: as §1, §2, §3, §4

Klebsiella pneumonia = test: Broth dilution MIC determination; type: cell-based; settings: Klebsiella pneumoniae, 37 °C, 24 h, read-out: Minimum Inhibitory Concentrations
Description: as §1, §2, §3, §4

Pseudomonas aeruginosa = test: Broth dilution MIC determination; type: cell-based; settings: 37 °C, 24 h, read-out: Minimum Inhibitory Concentrations
Description: as §1, §2, §3, §4

Escherichia coli = test: Broth dilution MIC determination; type: cell-based; settings: 37 °C, 24 h, read-out: Minimum Inhibitory Concentrations
Description: as §1, §2, §3, §4

[2] = DPPH free radical scavenging assay; type: biochemical; settings: for DPPH IC50: linear regression of % scavenging vs concentration
Description: According to the Brand-Williams assay DPPH (2, 2-diphenyl-1-picrylhydrazyl) free radical scavenging activity of morin was determined. DPPH and compounds stock solutions (1 mg/mL) were prepared in 100 mL methanol with serial dilutions of […], 62.5, 250, 500, and 1000 µg/mL. After that, 0.1 mL morin was mixed with 3.0 mL DPPH solution and incubated at 23 °C for 30 min. Standard ascorbic acid solution was also prepared in the same way using as a positive control. Finally, absorbance was measured at 517 nm via UV spectrophotometer. Results were taken in a set of three experiments and represented as mean ± SEM. Percent free radicals scavenging potential was calculated according to the following Equation (1): (1) % Free radicals Scavenging potential = Blank sample absorbance−sample absorbance/Blank sample absorbance×100
(§5) All the in vitro and in vivo experiments were analyzed in three replicates and determined as mean ± SEM. Student’s t-test and one way ANOVA followed by Dunnett’s post hoc multiple comparison test was used. p ≤ 0.05 were considered as significant. Linear regression analysis was used to calculate the IC50 value for % DPPH, ABTS, α-amylase, and α-glucosidase inhibition against the different concentrations of the test samples by means of Excel program 2007.

[3] = ABTS free radical scavenging assay; type: biochemical; settings: for ABTS IC50: linear regression of % scavenging vs concentration
Description: ABTS (2,2′-azinobis-3-ethylbenzothiazoline-6-sulfonic acid) free radicals inhibition potential were determined according to the reported assay. ABTS solution was prepared in methanol (100 mL). In total, 300 µL of compound (morin, phloroglucinol, and 1-hexyl benzene) was mixed thoroughly with 3.0 mL ABTS solution and incubated for six minutes. Finally, the absorbance was measured through UV spectrophotometer using ascorbic acid as positive control. Percent ABTS free radicals scavenging potential was calculated using the equation No. 1.
as §5

Salmonella typhi [4] = test: Agar well diffusion, zone of inhibition; type: cell-based; settings: 24 h; for zone of inhibition at 100 µg/mL: Salmonella enterica, TYPHI; for Zone of Inhibition: Salmonella typhi, 100 µg/mL, 37 °C
Salmonella typhi [5] = test: Broth dilution MIC determination; type: cell-based; settings: Salmonella enterica, 24 h, read-out: Minimum Inhibitory Concentrations

With `CCCCCCc1ccccc1` [1-Hexyl benzene, 1-hexylbenzene] the “% DPPH Scavenging Mean ± SEM” value [1] was 40 ± 1.1 %, the MIC (Bacillus cereus) was 135 ± 1.5 µg/mL (≈ 832 µM) and the MIC (Proteus mirabilis) was 250 ± 1.2 µg/mL (≈ 1540 µM). For the same compound, the MIC (Klebsiella pneumonia) was 178 ± 2.2 µg/mL (≈ 1100 µM), the MIC (Pseudomonas aeruginosa) was 200 ± 1.5 µg/mL (≈ 1230 µM) and the MIC (Escherichia coli) was 95 ± 2.1 µg/mL (≈ 585 µM). For the same compound, the “% DPPH Scavenging Mean ± SEM” value ([2]; 31.05 µg/mL) was 28 ± 1.1 %, the “% DPPH Scavenging Mean ± SEM” value ([2]; 62.5 µg/mL) was 35 ± 0.4 % and the “% DPPH Scavenging Mean ± SEM” value ([2]; 250 µg/mL) was 46 ± 0.5 %. The “% DPPH Scavenging Mean ± SEM” value ([2]; 500 µg/mL) was 53 ± 2.1 %, the “% DPPH Scavenging Mean ± SEM” value ([2]; 1000 µg/mL) was 59 ± 1.5 % and the “DPPH IC50” value [2] was 118 µg/mL. For the same compound, the “% ABTS Scavenging Mean ± SEM” value ([3]; 31.05 µg/mL) was 19 ± 1.4 %, the “% ABTS Scavenging Mean ± SEM” value ([3]; 62.5 µg/mL) was 26 ± 0.5 % and the “% ABTS Scavenging Mean ± SEM” value ([3]; 125 µg/mL) was 31 ± 1.0 %. The “% ABTS Scavenging Mean ± SEM” value ([3]; 250 µg/mL) was 39 ± 1.5 %, the “% ABTS Scavenging Mean ± SEM” value ([3]; 500 µg/mL) was 47 ± 2.2 % and the “% ABTS Scavenging Mean ± SEM” value ([3]; 1000 µg/mL) was 55 ± 1.1 %. The “ABTS IC50” value [3] was 129 µg/mL, the zone of inhibition at 100 µg/mL (Salmonella typhi [4]) was 7.4 ± 1.2 mm and the “Zone of Inhibition” value (Salmonella typhi [4]) was 7.4 ± 1.2 mm. For the same compound, the MIC (Salmonella typhi [5]) was 112 ± 1.6 µg/mL (≈ 690 µM).
With `Oc1cc(O)cc(O)c1` [Phloroglucinol, Benzene-1,3,5-triol] the “% DPPH Scavenging Mean ± SEM” value [1] was 40 ± 0.5 %, the MIC (Bacillus cereus) was 105 ± 1.6 µg/mL (≈ 833 µM) and the MIC (Proteus mirabilis) was 205 ± 1.5 µg/mL (≈ 1630 µM). It also gave an MIC (Klebsiella pneumonia) of 166 ± 1.5 µg/mL (≈ 1320 µM), an MIC (Pseudomonas aeruginosa) of 180 ± 2.1 µg/mL (≈ 1430 µM) and an MIC (Escherichia coli) of 80 ± 1.4 µg/mL (≈ 634 µM). For the same compound, the “% DPPH Scavenging Mean ± SEM” value ([2]; 31.05 µg/mL) was 32 ± 0.5 %, the “% DPPH Scavenging Mean ± SEM” value ([2]; 62.5 µg/mL) was 36 ± 1.1 % and the “% DPPH Scavenging Mean ± SEM” value ([2]; 250 µg/mL) was 51 ± 1.0 %. For the same compound, the “% DPPH Scavenging Mean ± SEM” value ([2]; 500 µg/mL) was 57 ± 1.0 %, the “% DPPH Scavenging Mean ± SEM” value ([2]; 1000 µg/mL) was 67 ± 0.4 % and the “DPPH IC50” value [2] was 105 µg/mL. For the same compound, the “% ABTS Scavenging Mean ± SEM” value ([3]; 31.05 µg/mL) was 25 ± 1.0 %, the “% ABTS Scavenging Mean ± SEM” value ([3]; 62.5 µg/mL) was 33 ± 0.5 % and the “% ABTS Scavenging Mean ± SEM” value ([3]; 125 µg/mL) was 39 ± 1.2 %. The “% ABTS Scavenging Mean ± SEM” value ([3]; 250 µg/mL) was 45 ± 1.0 %, the “% ABTS Scavenging Mean ± SEM” value ([3]; 500 µg/mL) was 51 ± 0.5 % and the “% ABTS Scavenging Mean ± SEM” value ([3]; 1000 µg/mL) was 64 ± 1.1 %. The “ABTS IC50” value [3] was 112 µg/mL, the zone of inhibition at 100 µg/mL (Salmonella typhi [4]) was 12 ± 1.1 mm and the “Zone of Inhibition” value (Salmonella typhi [4]) was 12 ± 1.1 mm. The MIC (Salmonella typhi [5]) was 175 ± 2 µg/mL (≈ 1390 µM).
For `O=c1c(O)c(-c2ccc(O)cc2O)oc2cc(O)cc(O)c12` [Morin, 2-(2,4-Dihydroxyphenyl)-3,5,7-trihydroxychromen-4-one], the “% DPPH Scavenging Mean ± SEM” value [1] was 68 ± 1.2 %, the MIC (Bacillus cereus) was 21 ± 1.2 µg/mL (≈ 69.5 µM) and the MIC (Proteus mirabilis) was 55 ± 1.4 µg/mL (≈ 182 µM). For the same compound, the MIC (Klebsiella pneumonia) was 30 ± 1.4 µg/mL (≈ 99.3 µM), the MIC (Pseudomonas aeruginosa) was 44 ± 1.5 µg/mL (≈ 146 µM) and the MIC (Escherichia coli) was 25 ± 1.1 µg/mL (≈ 82.7 µM). The “% DPPH Scavenging Mean ± SEM” value ([2]; 31.05 µg/mL) was 54 ± 0.5 %, the “% DPPH Scavenging Mean ± SEM” value ([2]; 62.5 µg/mL) was 59 ± 1.3 % and the “% DPPH Scavenging Mean ± SEM” value ([2]; 250 µg/mL) was 76 ± 1.0 %. The “% DPPH Scavenging Mean ± SEM” value ([2]; 500 µg/mL) was 83 ± 0.5 ^ns %, the “% DPPH Scavenging Mean ± SEM” value ([2]; 1000 µg/mL) was 88± 1.1% and 88 ± 1.1 ^ns % and the “DPPH IC50” value [2] was 37 µg/mL. The “% ABTS Scavenging Mean ± SEM” value ([3]; 31.05 µg/mL) was 45 ± 0.5 %, the “% ABTS Scavenging Mean ± SEM” value ([3]; 62.5 µg/mL) was 57 ± 1.4 % and the “% ABTS Scavenging Mean ± SEM” value ([3]; 125 µg/mL) was 64 ± 1.2 %. For the same compound, the “% ABTS Scavenging Mean ± SEM” value ([3]; 250 µg/mL) was 75 ± 0.5 ^ns %, the “% ABTS Scavenging Mean ± SEM” value ([3]; 500 µg/mL) was 80 ± 1.0 ^ns % and the “% ABTS Scavenging Mean ± SEM” value ([3]; 1000 µg/mL) was 88 ± 1.0% and 88 ± 1.0 ^ns %. For the same compound, the “ABTS IC50” value [3] was 40 µg/mL, the zone of inhibition at 100 µg/mL (Salmonella typhi [4]) was 16 ± 1.2 mm and the “Zone of Inhibition” value (Salmonella typhi [4]) was 16 ± 1.2 mm. It also gave an MIC (Salmonella typhi [5]) of 28 ± 1 µg/mL (≈ 92.6 µM).
